Results reported in patent US3966957A, “Method for controlling emesis with N-(1-substituted-3-pyrrolidinyl)benzamides and thiobenzamides” (A. H. Robins Company, Incorporated, priority 1974, dated 1976).

What was measured:
[1] = tested on: apomorphine-induced emesis; assay: Reduction of apomorphine-induced emesis in dogs, subcutaneous administration; type: in vivo, dog; conditions: for ED50: Canis lupus familiaris, sc, read-out: ED50, Anti-Emetic Effect of Subcutaneous Administration
Method: (§1) The anti-emetic properties of the compounds of Formulae I and II were established using a modification of the methods of Chen and Ensor, J. Pharmac. Exp. Ther. 98: 245-250 (1950) and of Leonard et al, J. Pharmac. Exp. Ther. 154, 339-345 (1966). Drug activity was assessed by its ability to reduce the frequency of apomorphine-induced emesis in dogs. The dogs were prescreened for fairly constant emetic responses to the subcutaneous administration of 0.1 mg./kg. of apomorphine hydrochloride, and those which vomited five or more times in the 40-minute period after apomorphine administration were selected for drug studies.
(§2) Groups of three dogs were used in preliminary tests and for the determinations of time of peak drug effect. Dose response curves were usually obtained using four drug-treated groups; each group contained at least three dogs. The dogs were fed approximately 17 hours prior to a test. Drugs were administered and at suitable intervals the dogs received 0.1 mg/kg of apormorphine hydrochloride subcutaneously. Frequency of emesis was determined during the next 40 minutes and emesis was counted as the actual expulsion of stomach contents.
In oral studies, drugs were administered in gelatin capsules (controls received an empty capsule). In the subcutaneous studies, drugs were administered in distilled water and/or polyethylene glycol-300.
Dogs were re-used at intervals of not less than one week. The ED50 is the dose which reduces the frequency of emesis of drug treated dogs to a value 50% below that of controls. Mean frequency of emesis for each drug treated group was compared with a mean control value derived by pooling the prior control emetic frequencies for all dogs used on that test day. The difference is expressed as a percentage decrease relative to controls. The per cent decrease in mean frequency of emesis for each drug-treated group (ordinate) was plotted against log dose (abscissa) on semi-log graph sheets. The ED50 was calculated by the method of Goldstein (Biostatistics, An Introductory Test; Pages 156-161; The MacMillan Co., New York, 1964).
Three dogs selected as described above were injected subcutaneously with 5.0 mg./kg. (3.12 mg./kg. expressed as free base) of the test drug 4-amino-N-(1-cyclohexyl-3-pyrrolidinyl)-N-methyl-benzamide cyclohexane-sulfamate from compound Example 4. One hour later apormorphine hydrochloride was administered in doses of 0.1 mg./kg. subcutaneously. Complete blockage of emesis (-100%) was observed over the 40-minute period following administration of apomorphine hydrochloride. […] (0.27 mg./kg. expressed as free base) was established for subcutaneous administration of the test drug.
Using the technique described in the foregoing general procedure and pharmacology in Example 1 for subcutaneous evaluation of test drugs against apomorphine induced emesis, results for additional compounds were obtained as shown in Table 4.

[2] = tested on: apomorphine-induced emesis; assay: Reduction of apomorphine-induced emesis in dogs, oral administration; type: in vivo, dog
Method: as §1
as §2, with “Drugs were administered and at suitable intervals the dogs received 0.1 mg/kg of apormorphine hydrochloride subcutaneously.” left out, “contents. […]” for “contents.”
Dogs were re-used at intervals of not less than one week. […] The difference is expressed as a percentage decrease relative to controls. […] The ED50 was calculated by the method of Goldstein (Biostatistics, An Introductory Test; Pages 156-161; The MacMillan Co., New York, 1964). […]

catalepsy = assay: Catalepsy in rats (IP), modified Tedeschi procedure; type: in vivo, rat; conditions: IP administration in rats, as free base (Table 7)
Method: (§3) Drugs were blind tested with positive and negative controls. […] The modified procedure is as follows.
(§4) Groups of six rats are dosed (IP) with drugs in saline solution and tested hourly over a six hour period. A phenothiazine or non-phenothiazine reference standard is tested concomitantly as a positive control; negative controls receive only the saline vehicle. After administration the rats are positioned hourly with each foot on a No. 7 rubber stopper. A rat is considered cataleptic if it remains immobile on the stoppers for five seconds or longer at two or more consecutive hourly observation intervals.

[3] = as above; type: in vivo, rat; conditions: rat, in vivo; IP administration in rats; as free base (Table 7)
Method: as §3, §4

For `O=C(NC1CCN(C2CCCCC2)C1)c1ccc(F)cc1` (stereo not drawn) [Example 10], the ED50 [1] was 0.15 mg/kg.

`O=C(NC1CCN(C2CCCCC2)C1)c1ccccc1` (stereo not drawn) [Example 24] gave a reduction in emesis ([2]; oral, dose level of 5 mg./kg. (Table 5 footnote a)) of 60%.

In the case of `Nc1ccc(C(=O)NC2CCN(C3CCCCC3)C2)cc1` (stereo not drawn) [Example 23], the “Catalepsy (As Free Base), percent of rats cataleptic” value (catalepsy; at 94.2 mg/kg) is reported as 33%.

With `CN(C(=O)c1ccc(N)cc1)C1CCN(C2CCCCC2)C1` (stereo not drawn) [Example 4, 4-Amino-N-(1-cyclohexyl-3-pyrrolidinyl)-N-methylbenzamide Cyclohexanesulfamate] the “Catalepsy (As Free Base), ED50 or other: highest dose without catatonia” value (catalepsy) was “no catatonia to 125”, the “change in frequency of apomorphine-induced emesis” value ([1]; subcutaneous 5.0 mg./kg. (3.12 mg./kg. as free base), 1 h before apomorphine 0.1 mg./kg. s.c., 40-minute observation, dogs) was -100% and the “change in apomorphine induced emesis” value ([2]; oral 2.5 mg./kg. in capsules, 2 h before apomorphine 0.1 mg./kg. s.c.) was -95%.

`O=C(NC1CCN(c2ccccc2)C1)c1ccc([N+](=O)[O-])cc1` (stereo not drawn) [Example 3, N-(1-Phenyl-3-pyrrolidinyl)-4-nitrobenzamide] showed a reduction in emesis ([1]; dogs, subcutaneous, dose level of 5 mg./kg. (Table 4 footnote a)) of 50%.

For `CN(C(=O)c1ccc([N+](=O)[O-])cc1)C1CCN(C2CCCCC2)C1` (stereo not drawn) [Example 27], the “Catalepsy (As Free Base), ED50 or other: highest dose without catatonia” value (catalepsy) was “no catatonia to 100” and the lethal dose (catalepsy) was 100 mg/kg.

Compound `CC(=O)Nc1ccc(C(=O)NC2CCN(C3CCCCC3)C2)cc1` (stereo not drawn) [Example 7, N-(1-Cyclohexyl-3-pyrrolidinyl)-4-acetamidobenzamide] has an ED50 [1] of 2.4 mg/kg.

Work on `O=C(NC1CCN(C2CCCCC2)C1)c1ccc([N+](=O)[O-])cc1` (stereo not drawn) [Example 25] yielded an ED50 [3] of 28 mg/kg.

With `O=C(NC1CCN(C2CCCCC2)C1)c1cc([N+](=O)[O-])cc([N+](=O)[O-])c1` (stereo not drawn) [Example 12] the ED50 [1] was 0.15 mg/kg.
